Drawing on EP4711356A1, “TETRAHYDROCARBAZOLE DERIVATIVE, PHARMACEUTICAL COMPOSITION, AND USE THEREOF” (Nain Biotech (Hangzhou) Co., Ltd., priority 2023, dated 2024), this text covers IC50 for 33 compounds.

pIC50: −log10 of the molar value. A value given as a limit tells only on which side of the number the result lay.

In the assay the test system is HeLa cells. The experiment in a line: Cell-based pharmacodynamic assay (CellTiter-Glo proliferation inhibition), HeLa. The settings on record: human cervical cancer HeLa cells; 72 hours incubation; CellTiter-Glo luminescence; read-out: IC50 against HeLa cells. The gist of the method:
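Cells seeded overnight in line-specific media with FBS, then dosed from DMSO stocks (20 mM stock) for 72 h at 37 °C, 5% CO2. Viability by CellTiter-Glo luminescence; inhibition normalised to DMSO and blank wells, IC50 from four-parameter fit.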
Background: ATP-based viability assays read luminescence as a measure of living cells.
Turning to `CC1(C)CCN(c2cccc3[nH]c4c(c23)CCCC4=O)C1` [Compound B23], the pIC50 was at least 6.70. Consider `CCOC(=O)c1cccc2c1c1c(n2C(=O)c2ccc(Cl)cc2)C(=O)CCC1` [Compound C20], for which the pIC50 is at least 6.70. As for `COC(=O)c1cccc2[nH]c3c(c12)CCC3=O` [Compound B51], the figure is at least 6.70; as for `O=C1CCCc2c1[nH]c1cccc(C(=O)OCc3ccccc3)c21` [Compound B34], at least 6.30. The value for `CCOC(=O)c1cccc2[nH]c3c(c12)CCC(N1CCC1)C3=O` (racemic) [Compound B132] was at least 6.30; that for `O=C1CCCc2c1[nH]c1cccc(C3=CCOCC3)c21` [Compound B62] was at least 6.70. As for `O=C1CCCc2c1[nH]c1cccc(C(=O)OCc3ccc(F)cc3)c21` [Compound B43], the figure is at least 6.30. `CCOCC(=O)n1c2c(c3c(C(=O)OCC)cccc31)CCCC2=O` [Compound C14]: the pIC50 is at least 6.70. `Cc1cc(-c2cccc3[nH]c4c(c23)CCCC4=O)ccn1` [Compound B97]: the pIC50 is at least 6.30. Regarding `Cc1cccc2[nH]c3c(c12)CCCC3=NCCO` [Compound E54], the pIC50 is at least 6.70. The value for `Cn1cc(-c2cccc3[nH]c4c(c23)CCCC4=O)cn1` [Compound B154] was at least 6.70; that for `O=C1CCCc2c1[nH]c1cccc(C(=O)OC3CCOC3)c21` (racemic) [Compound B137] was at least 6.70. The value for `COCCOC(=O)c1cccc2[nH]c3c(c12)CCCC3=O` [Compound B38] was at least 6.70. Consider `[2H]C([2H])([2H])C([2H])([2H])OC(=O)c1cccc2[nH]c3c(c12)CCCC3=O` [Compound B116], for which the pIC50 is at least 6.70. With `CCOC(=O)c1cccc2c1c1c(n2C(=O)C2CCN(C)CC2)C(=O)CCC1` [Compound C24], the pIC50 is at least 6.70. Turning to `O=C1CCCc2c1[nH]c1cccc(C(=O)OC3CCC34CC4)c21` (racemic) [Compound B136], the pIC50 is at least 6.70. The value for `O=C1CCCc2c1[nH]c1cccc(-c3cnn(CCO)c3)c21` [Compound B181] was at least 6.70. The value for `O=C1CCCc2c1[nH]c1cccc(N3CCCC3)c21` [Compound B66] was at least 6.70. As for `C#Cc1ccc2[nH]c3c(c2c1C(=O)OCC)CCCC3=O` [Compound B153], the figure is at least 6.70; as for `O=C1CCCc2c1[nH]c1cccc(N3CCO[C@H](CO)C3)c21` [Compound B194], at least 6.70. In the case of `Cc1ccc2[nH]c3c(c2c1)CCCC3=NC1CCN(S(=O)(=O)C(C)C)CC1` [Compound E43], the pIC50 was at least 6.70. The value for `COC(=O)c1ccc(F)c2[nH]c3c(c12)CCCC3=O` [Compound B18] was at least 6.30; that for `Cc1ccc2[nH]c3c(c2c1)CCCC3=N[C@@H]1CCN(C)C1` [Compound E05R] was at least 6.70. For the compound `COC(=O)c1cccc2[nH]c3c(c12)CCCC3=NC(C)C(F)(F)F` (stereo not drawn) [Compound E70], the pIC50 is at least 6.70.

For the compound `CCn1cc(-c2cccc3[nH]c4c(c23)CCCC4=O)cn1` [Compound B155], the pIC50 was at least 6.70. The value for `O=C1CCCc2c1[nH]c1cccc(-c3cnc4[nH]ncc4c3)c21` [Compound B50] was at least 6.70; that for `CCOC(=O)c1cccc2c1c1c(n2C(=O)c2ccc(C)cc2)C(=O)CCC1` [Compound C23] was at least 6.70; that for `COc1ccc2[nH]c3c(c2c1)CCCC3=NCC(=O)OC(C)(C)C` [Compound E33] was at least 6.30. As for `CCOC(=O)c1cccc2c1c1c(n2C(=O)c2c[nH]cc2C(F)(F)F)C(=O)CCC1` [Compound C57], the figure is at least 6.30; as for `COC(=O)c1cccc2c1c1c(n2C(C)=O)C(=O)CCC1` [Compound C01], at least 6.70. As for `Cc1cccc2[nH]c3c(c12)CCCC3=NCC(=O)OC(C)(C)C` [Compound E52], the figure is at least 6.70; as for `CCOC(=O)c1cccc2c1c1c(n2C(=O)c2ccc(C)cn2)C(=O)CCC1` [Compound C27], at least 6.70; as for `CS(=O)(=O)c1cccc2[nH]c3c(c12)CCCC3=O` [Compound B74], at least 6.70.

As usually defined, the pIC50 is −log10 of the IC50, conventionally taken in molar units.
